Tests used:
[1] = system: thrombocytes; experiment: ADP-induced aggregation of thrombocytes in vitro (Born method, plasma enriched with thrombocytes); type: cell-based, rabbit; details: 3-minute incubation, ADP 10^−5 M
[2] = Chronic toxicity of suppositories: indexes of peripheral blood; type: in vivo, rats
Description: The experiments were conducted on inbred rats.
Two doses of preparations used in the experiments: 50 mg/kg and 500 mg/kg. Before the administration, the suppositories were softened by heating in a glass water bath at a temperature of 38-39° C., the soft mass was collected in tuberculin syringe in a volume of 1 ml, a needle with oliva was attached to the syringe, and the preparatory mass was introduced into the rectum of the animal for a depth of 1.5-2.0 cm. The animals of the control group were administered with sterile medical liquid paraffin in a volume corresponding to the volume of the investigated suppository. A complete course of administration of drugs to the animals was two months. A complex of laboratory diagnostic investigations was carried out one month after the beginning of the administration of the preparation to the animal—in a middle of the course (8 animals), two months after ending the course (8 animals) and three months after ending the recovery period of one month (8 animals). The mass of the body of the rats in the first month of administration of the preparation was determined weekly, and then once in two weeks. On the basis of the dynamics of an index of the mass of the animal body, the volume of preparation being administered was corrected taking into account the test dose.

[3] = system: thrombocytes; experiment: ADP-induced aggregation of thrombocytes after intravenous administration (in vivo); design: species or system rabbit
Description: The experiments were carried out on male rabbits of the “Chinchilla” breed having a mass of 2.7±0.3 kg. 18-24 hours prior to the experiment they were deprived of feed while preserving free access to water.
To obtain plasma enriched with thrombocytes, blood was taken from a cut of a marginal vein of the rabbit ear, the sample was stabilized with 3.8% of sodium citrate solution in a ratio of 9:1 and centrifuged at 200 g (1000 rev/min) for 10 minutes. The top supernatant layer enriched with thrombocytes was transferred by an automatic dropper into a silicone test tube and kept at 37° C. The plasma enriched with thrombocytes contained, on the average, […]. If this content exceeded the specified 3×10^8 blood platelets in 1 liter, this sample was diluted to the necessary concentration with plasma deprived of thrombocytes, which was obtained by centrifuging blood at 650 g during 10 minutes.
The measurements of the optical density of the samples were made on two-channel aggregometer of the “Chronolog” Company (USA). A flask containing 490 mkl of plasma rich with thrombocytes was placed in a device, into which a magnetic agitator covered with Teflon was lowered. The index of maximum amplitude of aggregation (MA) in percent of a fall of the plasma optical density under effect of the aggregation inductor was recorded. The control index MA of plasma was compared with the MA of plasma incubated for 3 minutes with different concentrations of the compounds: from 10^−3 to 10^−7 in vitro experiments or with plasma obtained 15, 30, 60 and 120 minutes after intravenous administration of different doses of the compounds in vivo experiments.
The process of aggregation of thrombocytes was recorded with the help of a computer; on the monitor screen the there were depicted curves reflecting changes of the optical density of the plasma enriched which was taken as a standard 100% compared to the optical density of the non-thrombocyte plasma taken for 0% content of thrombocytes.
The antiaggregative capability of compounds 2, 15, 21, 37, according to the invention was tested in experiments in vivo. Introduced to the test animals intravenously were an aggregation inductor ADP at a concentration of 10^−5 M was and then the compounds according to the invention. The doses of the compounds were in a range from 15 to 60 mg/kg.
For leveling the different effects of the compounds in different days due the ambient temperature, humidity and other parameters, 2 animals of each series were taken for experiments every day. Under “series” there is understood a group of 6 animals used for studying one of the doses of the compounds.
The blood for obtaining plasma enriched with thrombocytes was taken from marginal vein of the rabbit ear: in the control group—directly before introducing the tested compounds; in investigated groups—15 minutes after introducing these compounds and then after 30, 60, 120 minutes and so on up to the moment when the effect of suppression of aggregation disappeared.
The quantity of thrombocytes was counted before the experiment and at the end thereof in each plasma sample.

[4] = male rats, suppositories rectally, 50 mg/kg, 1 month/2 months (one value given), control 0
[5] = male rats, suppositories rectally, 500 mg/kg, 1 month/2 months (one value given), control 0
[6] = 15.0 mg/kg intravenously, after 15 minutes, control 50.1 ± 1.7
[7] = 15.0 mg/kg intravenously, after 30 minutes, control 50.1 ± 1.7
[8] = 15.0 mg/kg intravenously, after 60 minutes, control 50.1 ± 1.7
[9] = 15.0 mg/kg intravenously, after 120 minutes, control 50.1 ± 1.7
[10] = 30.0 mg/kg intravenously, after 15 minutes, control 61.0 ± 1.3
[11] = 30.0 mg/kg intravenously, after 30 minutes, control 61.0 ± 1.3
[12] = 30.0 mg/kg intravenously, after 60 minutes, control 61.0 ± 1.3
[13] = 30.0 mg/kg intravenously, after 120 minutes, control 61.0 ± 1.3
[14] = 60.0 mg/kg intravenously, after 15 minutes, control 48.6 ± 1.3
[15] = 60.0 mg/kg intravenously, after 30 minutes, control 48.6 ± 1.3
[16] = 60.0 mg/kg intravenously, after 60 minutes, control 48.6 ± 1.3
[17] = 60.0 mg/kg intravenously, after 120 minutes, control 48.6 ± 1.3

## Nc1cccc2c(=O)[nH][nH]c(=O)c12.[Na] [Compound 15, sodium salt of 5-amino-benzo[d]-3H-pyridazine-1,4-dione]
[1]; 10^−3 M, control 60.8 ± 3.4
  MA - fall of optical density of plasma, % to the standard: 44.8 ± 2.8 %
[1]; 10^−4 M, control 60.0 ± 2.1
  MA - fall of optical density of plasma, % to the standard: 46.3 ± 1.7 %
[1]; 10^−5 M, control 52.5 ± 2.1
  MA - fall of optical density of plasma, % to the standard: 39.8 ± 3.1 %
[1]; 10^−6 M, control 52.8 ± 1.8
  MA - drop of optical density, %: 47.3 ± 1.8 %
[1]; 10^−7 M, control 51.5 ± 2.1
  MA - drop of optical density, %: 49.3 ± 1.4%
[2]; [4]
  Basophiles: 0%
  Juveniles: 0%
[2]; male rats, suppositories rectally, 50 mg/kg, 1 month, control 0.8 ± 0.4
  Stab neutrophil: 1.2 ± 0.5%
[2]; male rats, suppositories rectally, 50 mg/kg, 1 month, control 2.2 ± 0.4
  REE: 1.8 ± 0.4 mm/h
[2]; male rats, suppositories rectally, 50 mg/kg, 1 month, control 2.8%0.3
  Reticulocytes: 2.6 ± 0.2%
[2]; male rats, suppositories rectally, 50 mg/kg, 1 month, control 4.0 + 0.3
  Eosinophiles: 3.2 ± 1.0%
[2]; male rats, suppositories rectally, 50 mg/kg, 1 month, control 5.6 ± 0.1
  Erythrocytes: 5.7 ± 0.2 mln/mm^3
[2]; male rats, suppositories rectally, 50 mg/kg, 1 month, control 10.5 ± 0.2
  Hemoglobin: 10.6 ± 0.2 mmol/L
[2]; male rats, suppositories rectally, 50 mg/kg, 1 month, control 17.4 ± 1.3
  Leukocyte: 14.8 ± 2.0 thousand/mm^3
[2]; male rats, suppositories rectally, 50 mg/kg, 1 month, control 45.9 ± 1.7
  Haematocrite: 47.9 ± 1.4%
[2]; male rats, suppositories rectally, 50 mg/kg, 1 month, control 81.4 ± 1.7
  Average volume of erythrocytes: 84.4 ± 1.5 Mkm^3
[2]; male rats, suppositories rectally, 50 mg/kg, 1 month, control 152 ± 10.2
  Coagulation, time: 140 ± 12.2 s
[2]; male rats, suppositories rectally, 50 mg/kg, 2 months, control 1.4 ± 0.2
  REE: 1.6 ± 0.2 mm/h
[2]; male rats, suppositories rectally, 50 mg/kg, 2 months, control 2.4 ± 0.4
  Stab neutrophil: 0.8 ± 0.5%
[2]; male rats, suppositories rectally, 50 mg/kg, 2 months, control 2.9 ± 0.2
  Reticulocytes: 3.0 ± 0.1%
[2]; male rats, suppositories rectally, 50 mg/kg, 2 months, control 4.4 + 1.2
  Eosinophiles: 3.6 ± 1.2%
[2]; male rats, suppositories rectally, 50 mg/kg, 2 months, control 6.1 ± 0.1
  Erythrocytes: 6.0 ± 0.1 mln/mm^3
[2]; male rats, suppositories rectally, 50 mg/kg, 2 months, control 11.4 ± 0.2
  Hemoglobin: 11.2 ± 0.1 mmol/L
[2]; male rats, suppositories rectally, 50 mg/kg, 2 months, control 19.1 ± 1.9
  Leukocyte: 16.3 ± 1.0 thousand/mm^3
[2]; male rats, suppositories rectally, 50 mg/kg, 2 months, control 45.9 ± 1.8
  Haematocrite: 47.5 ± 1.2%
[2]; male rats, suppositories rectally, 50 mg/kg, 2 months, control 74.6 + 1.9
  Average volume of erythrocytes: 78.6 ± 1.5 Mkm^3
[2]; male rats, suppositories rectally, 50 mg/kg, 2 months, control 316 ± 8
  Coagulation, time: 321 ± 12 s
[2]; [5]
  Basophiles: 0%
  Juveniles: 0%
[2]; male rats, suppositories rectally, 500 mg/kg, 1 month, control 0.8 ± 0.4
  Stab neutrophil: 0.8 ± 0.5/0.8 ± 0.5%
[2]; male rats, suppositories rectally, 500 mg/kg, 1 month, control 2.2 ± 0.4
  REE: 2.2 ± 0.4 mm/h
[2]; male rats, suppositories rectally, 500 mg/kg, 1 month, control 2.8%0.3
  Reticulocytes: 3.1 ± 0.2%
[2]; male rats, suppositories rectally, 500 mg/kg, 1 month, control 4.0 + 0.3
  Eosinophiles: 3.0 ± 1.0%
[2]; male rats, suppositories rectally, 500 mg/kg, 1 month, control 5.6 ± 0.1
  Erythrocytes: 5.7 ± 0.1 mln/mm^3
[2]; male rats, suppositories rectally, 500 mg/kg, 1 month, control 10.5 ± 0.2
  Hemoglobin: 10.6 ± 0.2 mmol/L
[2]; male rats, suppositories rectally, 500 mg/kg, 1 month, control 17.4 ± 1.3
  Leukocyte: 17.0 ± 1.4 thousand/mm^3
[2]; male rats, suppositories rectally, 500 mg/kg, 1 month, control 45.9 ± 1.7
  Haematocrite: 47.6 ± 1.3%
[2]; male rats, suppositories rectally, 500 mg/kg, 1 month, control 81.4 ± 1.7
  Average volume of erythrocytes: 82.6 ± 1.1 Mkm^3
[2]; male rats, suppositories rectally, 500 mg/kg, 1 month, control 152 ± 10.2
  Coagulation, time: 151 ± 6.4 s
[2]; male rats, suppositories rectally, 500 mg/kg, 2 months, control 1.4 ± 0.2
  REE: 1.8 ± 0.4 mm/h
[2]; male rats, suppositories rectally, 500 mg/kg, 2 months, control 2.4 ± 0.4
  Stab neutrophil: 0.8 ± 0.5/0.8 ± 0.5%
[2]; male rats, suppositories rectally, 500 mg/kg, 2 months, control 2.9 ± 0.2
  Reticulocytes: 3.3 ± 0.3%
[2]; male rats, suppositories rectally, 500 mg/kg, 2 months, control 4.4 + 1.2
  Eosinophiles: 3.2 ± 1.4%
[2]; male rats, suppositories rectally, 500 mg/kg, 2 months, control 6.1 ± 0.1
  Erythrocytes: 6.7 ± 0.2 mln/mm^3
[2]; male rats, suppositories rectally, 500 mg/kg, 2 months, control 11.4 ± 0.2
  Hemoglobin: 12.5 ± 0.4 mmol/L
[2]; male rats, suppositories rectally, 500 mg/kg, 2 months, control 19.1 ± 1.9
  Leukocyte: 21.1 ± 2.4 thousand/mm^3
[2]; male rats, suppositories rectally, 500 mg/kg, 2 months, control 45.9 ± 1.8
  Haematocrite: 53.9 ± 2.1%
[2]; male rats, suppositories rectally, 500 mg/kg, 2 months, control 74.6 + 1.9
  Average volume of erythrocytes: 80.21 ± 1.2 Mkm^3
[2]; male rats, suppositories rectally, 500 mg/kg, 2 months, control 316 ± 8
  Coagulation, time: 308 ± 16 s
[3]; [6]
  MA - drop of optical density: 42.8 ± 1.8 %
[3]; [7]
  MA - drop of optical density: 41.8 ± 1.5 %
[3]; [8]
  MA - drop of optical density: 45.6 ± 1.5 %
[3]; [9]
  MA - drop of optical density: 48.3 ± 2.3 %
[3]; [10]
  MA - drop of optical density: 43.2 ± 2.2 %
[3]; [11]
  MA - drop of optical density: 41.8 ± 1.9 %
[3]; [12]
  MA - drop of optical density: 37.8 ± 1.8 %
[3]; [13]
  MA - drop of optical density: 58.1 ± 1.7%
[3]; [14]
  MA - drop of optical density: 43.1 ± 1.5 %
[3]; [15]
  MA - drop of optical density: 41.3 ± 1.5 %
[3]; [16]
  MA - drop of optical density: 44.7 ± 0.8%
[3]; [17]
  MA - drop of optical density: 47.2 ± 1.6%

## Nc1ccnc2c(=O)n([C@@H]3O[C@H](CO)[C@@H](O)[C@H]3O)[nH]c(=O)c12 [Compound 2, 4-amino-7-(β-D-ribofuranosile)pyrido[2,3-d]-6H-pyridazine-5,8-dione]
[1]; 10^−3 M, control 60.8 ± 3.4
  MA - fall of optical density of plasma, % to the standard: 51.4 ± 2.7 %
[1]; 10^−4 M, control 60.0 ± 2.1
  MA - fall of optical density of plasma, % to the standard: 50.4 ± 1.7 %
[1]; 10^−5 M, control 52.5 ± 2.1
  MA - fall of optical density of plasma, % to the standard: 48.2 ± 1.0 %
[1]; 10^−6 M, control 52.8 ± 1.8
  MA - drop of optical density, %: 50.1 ± 2.0%
[1]; 10^−7 M, control 51.5 ± 2.1
  MA - drop of optical density, %: 50.8 ± 2.2%
[2]; rat, in vivo, 50 mg/kg
  Average volume of erythrocytes: 83.4 ± 1.4 Mkm^3
  Basophiles: 0%
  Juveniles: 0%
  Reticulocytes: 2.8 ± 0.2/2.8 ± 0.2%
[2]; rat, in vivo, 500 mg/kg
  Average volume of erythrocytes: 85.2 ± 1.2 Mkm^3
  Basophiles: 0%
  Juveniles: 0%
[3]; [6]
  MA - drop of optical density: 44.2 ± 2.0 %
[3]; [7]
  MA - drop of optical density: 42.2 ± 1.6 %
[3]; [8]
  MA - drop of optical density: 46.9 ± 1.7 %
[3]; [9]
  MA - drop of optical density: 49.2 ± 2.0%
[3]; [10]
  MA - drop of optical density: 45.3 ± 2.0 %
[3]; [11]
  MA - drop of optical density: 43.7 ± 1.7 %
[3]; [12]
  MA - drop of optical density: 40.1 ± 2.2 %
[3]; [13]
  MA - drop of optical density: 59.7 ± 2.2%
[3]; [14]
  MA - drop of optical density: 45.2 ± 1.2 %
[3]; [15]
  MA - drop of optical density: 43.6 ± 2.0 %
[3]; [16]
  MA - drop of optical density: 47.8 ± 1.5%
[3]; [17]
  MA - drop of optical density: 48.0 ± 1.2%

Source: patent US8592421B2, “Cyclic bioisosters of purine system derivatives and a pharmaceutical composition based thereon” (priority 2003, dated 2013)
